Measurements: patent US8754047B2, “Peptide compositions and methods of use” (The Research Foundation for the State University of New York, priority 2008, dated 2014)
“Also recorded” adds a separate entry of the source. Positions of bridges follow the written chain, without caps; N, C: chain ends. Residues, ends and D or L forms follow the SMILES beside them. No end group written: not given here.

Legend:
MCF7 breast cancer cells = details: 24 h
Procedure: (§1) 10,000 HT29 or SW480 human colon cancer cells, BxPC-3 human pancreatic cancer cells, and MCF7 and MDA-MB-231 breast cancer cells were obtained from American Type Culture Collection (ATTC), Manassas, Va., and were seeded in separate 96-well plates. After treatment with various concentrations (6.25 μM, 12.5 μM, 25 μM, 50 μM, 100 μM, or 200 μM) of test peptide for 24 h, cells were stained with MTT (3-(4,5-Dimethyl-2-thiazolyl)-2,5-diphenyl-2H-tetrazolium bromide, from Sigma-Aldrich) following the instructions of the manufacturer. Before dissolving MTT in SDS, the HT29 and SW480 cells were photographed using a digital camera connected with a phase-contrast microscope. (FIG. 2A1-8, and FIG. 2B1-6). Cells that are alive convert MTT into formazan in their active mitochondria and appear dark purple; dead cells are not stained by MTT and appear colorless.
(§2) The IC50 is the concentration of the test agent that inhibits cell growth by 50% at 24 hours of exposure. IC50s were determined using the MTT assay or using the cell Titer-Glo method and following the instructions of the manufacturer ([…]). […] (Sun, Y., and Rigas, B., (2008), Cancer Res., 68(20): 8269-8277).

[1] = system: BxPC-3 human pancreatic cancer cells; details: 24 h
Procedure: as §1, §2

[2] = system: MDA-MB-231 breast cancer cells; details: 24 h
Procedure: as §1, §2

[3] = system: HT29, SW480, BxPC3, MCF7, and MDA-MB-231 cell lines; format: cell-based, human; details: 24 h
Excerpt: (FIG. 2A1-8, and FIG. 2B1-6).

[4] = system: SW480 human colon cancer cells; experiment: Flow cytometry forward/side scatter, proportion of dead cells, SW480; format: cell-based
Procedure: (§3) SW480 human colon cancer cells and MCF7 breast cancer cells were grown following the instructions of American Type Culture Collection (ATCC, Monassas, Va.). The cells were treated with the test peptides (YJB01, YJB05, or YJB06) for 24 hrs at concentrations ranging from 0 μM, to 200 μM and subjected to flow cytometric analysis following standard protocols.
(§4) SW480 human colon cancer cells and MCF7 breast cancer cells were grown following the instructions of American Type Culture Collection (ATCC, Monassas, Va.). The cells were treated with the test peptides for 24 hrs at concentrations ranging from 0 μM, to 200 μM and subjected to flow cytometry analysis following standard protocols. […] The circumscribed (gated, outlined) areas in the figure indicate dead cells; dead cells generally have higher density (side scatter) and smaller size (forward scatter) than living cells.

peroxiredoxin 1 = experiment: Oxidized peroxiredoxin 1 (Prx-O3) immunoblot in SW480 cells; format: cell-based, human; details: 1 h, YJB01 20 μM and 100 μM, YJB05 100 μM
Procedure: (§5) The oxidized peroxiredoxin 1 (sulphonic-peroxiredoxin, Prx-O3) was detected by using the specific anti-Prx-O3 antibody. Briefly, after SW480 cells were treated with either no peptide, with YBJ01 (at 20 μM and 100 μM), or with YJB05 (at 100 μM) for 1 h, total cell lysates were collected and separated on the SDS-PAGE gel. The gel was electroblotted onto a nitrocellulose membrane and probed with anti-Prx-O3, followed by HRP-conjugated secondary antibody. Bands corresponding to sulphonic-peroxiredoxin were visualized by ECL
as §5, with “anti-Prx-O3 antibody” for “anti-Prx-O3 antibody.”, “with YBJ05” for “with YJB05”

[5] = system: MCF-7 human breast cancer cells; experiment: Flow cytometry forward/side scatter, proportion of dead cells, MCF7; format: cell-based; details: 200 μM, 24 hr
Procedure: as §3, §4

[6] = system: SW480 human colon cancer cells; experiment: Annexin V-FITC flow cytometry for apoptotic cells, SW480; format: cell-based; details: 24 hrs, 0 μM to 200 μM
Procedure: (§6) SW480 human colon cancer cells and MCF7 breast cancer cells were grown following the instructions of American Type Culture Collection (ATCC, Monassas, Va.). The cells were treated with the test peptides (YJB01, YJB05, or YJB06) for 24 hrs at concentrations ranging from 0 μM, to 200 μM. After treatment, cells were trypsinized and stained with Annexin V-FITC (100× dilution) for 15 minutes. Annexin V-FITC fluorescence intensities were analyzed by FACSCaliber (BD Bioscience) following standard protocols. Annexin V (+) cells are apoptotic cells.
When cells undergo apoptosis, the inner membrane phospholipid, phosphotidylserine (PS), flips to the outer membrane and can be recognized by the […]. The green FITC fluorescence can be determined by flow cytometry and thus Annexin V (+) cells are apoptotic cells.
as §6, with “In this study, SW480” for “SW480”, “human” for “human colon”, “treatment” for “treatment,”, “protocols.” for “protocols. Annexin V (+) cells are apoptotic cells.”

thioredoxin 1 = target: T1, thioredoxin 1 (Homo sapiens, UniProt P10599); experiment: Thioredoxin 1 redox state, native PAGE immunoblot in SW480 cells; format: cell-based; details: YJB01 20 μM and 100 μM, YJB05 100 μM
T1 construct: endogenous in cells; host or cells: SW480 human colon cancer cells
T1 sequence (P10599 1-105): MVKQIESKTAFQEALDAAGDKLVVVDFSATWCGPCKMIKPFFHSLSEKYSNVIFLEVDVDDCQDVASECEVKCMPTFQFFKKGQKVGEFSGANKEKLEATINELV
Procedure: (§7) SW480 human colon cancer cells were grown following the instructions of American Type Culture Collection (ATCC, Monassas, Va.). Cells were treated with either no peptide, with YBJ01 (at 20 μM and 100 μM), or with YBJ05 (at 100 μM). 10^6 cells were lysed in 6 mol/L guanidinium chloride, 50 mmol/L Tris/HCL (pH 8.3), 3 mmol/L EDTA, and 0.5% Triton-X-100 containing 50 mmol/L iodoacetic acid. After 30 min at 37° C., the excess idoacetic acid was removed using Microspin G-25 columns (GE Healthcare Life Sciences). Oxidized and reduced thioredxoin was separated by native PAGE. The gel was electroblotted onto a nitrocellulose membrane and probed with thioredoxin antibodies, followed by HRP-conjugated secondary antibody. Bands corresponding to thioredoxin were visualized by ECL.
as §7, with “10^6 cells from each sample were lysed” for “10^6 cells were lysed”, “native PAGE. […]” for “native PAGE. The gel was electroblotted onto a nitrocellulose membrane and probed with thioredoxin antibodies, followed by HRP-conjugated secondary antibody. Bands corresponding to thioredoxin were visualized by ECL.”

Compound	IC50 (MCF7 breast cancer cells)	IC50 [1]	IC50 [2]	IC50 [3]	cell killing effect, SW480 ([4]; 24 hrs, 0 μM to 200 μM)	induction of the oxidized form of peroxiredoxin 1 (peroxiredoxin 1)	dead cells, MCF7 [5]	dead cells, SW480 ([4]; 200 μM, 24 hr)	apoptosis, Annexin V (+) cells, SW480 [6]	induction of the oxidized form of thioredoxin 1 (thioredoxin 1)
CC[C@H](C)[C@H](NC(=O)[C@H](CCCCN)NC(=O)[C@@H](NC(=O)[C@H](CCC(N)=O)NC(=O)[C@H](CCCNC(=N)N)NC(=O)[C@@H]1CCCN1C(=O)[C@H](CCCNC(=N)N)NC(=O)[C@@H]1CSSC[C@H](NC(=O)[C@@H](N)[C@@H](C)O)C(=O)N2CCC[C@H]2C(=O)N[C@@H](Cc2ccc(O)cc2)C(=O)N1)[C@@H](C)CC)C(=O)N[C@@H](Cc1c[nH]c2ccccc12)C(=O)N[C@@H](Cc1ccccc1)C(=O)N[C@@H](CCC(N)=O)C(=O)N[C@@H](CC(N)=O)C(=O)N[C@@H](CCCNC(=N)N)C(=O)N[C@@H](CCCNC(=N)N)C(=O)N[C@@H](CCSC)C(=O)N[C@@H](CCCCN)C(=O)N[C@@H](Cc1c[nH]c2ccccc12)C(=O)N[C@@H](CCCCN)C(=O)N[C@@H](CCCCN)C(=O)O [YJB03]	21 µM	153 µM	309 µM	–	–	–	–	–	–	–
CC[C@H](C)[C@H](NC(=O)[C@H](CCCCN)NC(=O)[C@@H](NC(=O)[C@H](CCC(N)=O)NC(=O)[C@H](CCCNC(=N)N)NC(=O)[C@@H]1CCCN1C(=O)[C@H](C)NC(=O)[C@@H]1CCCN1C(=O)[C@@H]1CSSC[C@H](NC(=O)[C@@H](N)C(C)C)C(=O)N2CCC[C@H]2C(=O)N[C@@H](C(C)C)C(=O)N1)[C@@H](C)CC)C(=O)N[C@@H](Cc1c[nH]c2ccccc12)C(=O)N[C@@H](Cc1ccccc1)C(=O)N[C@@H](CCC(N)=O)C(=O)N[C@@H](CC(N)=O)C(=O)N[C@@H](CCCNC(=N)N)C(=O)N[C@@H](CCCNC(=N)N)C(=O)N[C@@H](CCSC)C(=O)N[C@@H](CCCCN)C(=O)N[C@@H](Cc1c[nH]c2ccccc12)C(=O)N[C@@H](CCCCN)C(=O)N[C@@H](CCCCN)C(=O)O [YJB04] (H-VCPVCPAPRQIKIWFQNRRMKWKK-OH; disulfide 2-5; N-terminus and C-terminus assumed)	25 µM	123 µM	195 µM	–	–	–	–	–	–	–
C[C@H](N)C(=O)N[C@H](C(=O)N[C@@H](Cc1c[nH]c2ccccc12)C(=O)N[C@H]1CSSC[C@@H](C(=O)O)NC(=O)[C@@H]2CCCN2C(=O)CNC1=O)[C@@H](C)O [YJB06] (H-ATWCGPC-OH; disulfide 4-7 (inferred); N-terminus and C-terminus assumed)	–	–	–	> 2000 µM	failed to kill SW480 colon cancer cells	–	–	–	–	–
ATWAGPAKPRQIKIWFQNRRMKWKK [YJB05, reference compound]	–	–	–	> 2000 µM	–	fails to induce oxidation	12.52%	21.62%	ineffective	failed to induce oxidation of thioredoxin 1; also recorded: fails to induce oxidation
